According to patent US11207325B2, “Triazolopyrimidine compounds and uses thereof” (Novartis AG, priority 2014, dated 2021):

Experiments:
[1] = test system: H3K27 methylation in G401 cell; assay: ELISA (H3K27 methylation) assay; type: cell-based; conditions: Homo sapiens, G-401; ELISA Qualified assay (H3K27 methylation); read-out: (c) IC50 (μM), ELISA Qualified
From the text: ELISA (H3K27 Methylation) Assay

[2] = test system: B cell lymphoma cell KARPAS422; assay: Analysis of cell proliferation; type: cell-based; conditions: Homo sapiens, KARPAS-422, 336 h; B cell lymphoma cell KARPAS422 after 14 days of treatment; read-out: antiproliferative activities (IC50 values)
Description: Analysis of Cell Proliferation
B cell lymphoma cell KARPAS422 was cultured using standard cell culture conditions in RPMI-1640 (Invitrogen, cat #11875) supplemented with 15% FBS (Invitrogen, cat #10099-141) in humidified incubator at 37° C., 5% CO2. To assess the effect of PRC2 inhibition on cell proliferation, exponentially growing cells were seeded at a density of 1×10^5 cells/mL in 12-well plate (Corning, cat #CLS3513). After cell seeding, a compound of the present disclosure was added to the cell media (in concentrations ranging from 0 to 100 μM, 3× dilution series). Viable cell numbers were determined every 3-4 days for up to 14 days using Vi-CELL (Beckman Coulter). On days of cell counting, fresh growth media and compound were replenished and cells split back to a density of 1×10^5 cells/mL. Total cell number is expressed as split-adjusted viable cells per mL. The dose response curves and IC50 values were generated using Prism.

SMILES | IC50 [1] [µM] | IC50 [2] [nM]
Cc1cc(-c2cnc(NCc3c(F)ccc4c3CCO4)n3cnnc23)n(C)n1 [Example 1, 8-(1,3-dimethyl-1H-pyrazol-5-yl)-N-((5-fluoro-2,3-dihydrobenzofuran-4-yl)methyl)-[1,2,4]triazolo[4,3-c]pyrimidin-5-amine] | 0.0009 | 0.4
Cc1ncccc1-c1cnc(NCc2c(F)ccc3c2CCO3)n2cnnc12 [Example 2, N-((5-fluoro-2,3-dihydrobenzofuran-4-yl)methyl)-8-(2-methylpyridin-3-yl)-[1,2,4]triazolo[4,3-c]pyrimidin-5-amine] |  | 3
Cc1ncc(-c2cnc(NCc3c(F)ccc4c3CCO4)n3cnnc23)c(C)n1 [Example 3, 8-(2,4-Dimethylpyrimidin-5-yl)-N-((5-fluoro-2,3-dihydrobenzofuran-4-yl)methyl)-[1,2,4]triazolo[4,3-c]pyrimidin-5-amine] | 0.0034 | 0.7
Cc1nn(C(C)C)cc1-c1cnc(NCc2c(F)ccc3c2CCO3)n2cnnc12 [Example 4, N-((5-Fluoro-2,3-dihydrobenzofuran-4-yl)methyl)-8-(1-isopropyl-3-methyl-1H-pyrazol-4-yl)-[1,2,4]triazolo[4,3-c]pyrimidin-5-amine] | 0.0021 | 0.3
COc1cc(C)c(-c2cnc(NCc3c(F)ccc4c3CCO4)n3cnnc23)cn1 [Example 5, N-((5-fluoro-2,3-dihydrobenzofuran-4-yl)methyl)-8-(6-methoxy-4-methylpyridin-3-yl)-[1,2,4]triazolo[4,3-c]pyrimidin-5-amine] | 0.0029 | 0.8
Cc1nc(C2CC2)ccc1-c1cnc(NCc2c(F)ccc3c2CCO3)n2cnnc12 [Example 6, 8-(6-Cyclopropyl-2-methylpyridin-3-yl)-N-((5-fluoro-2,3-dihydrobenzofuran-4-yl)methyl)-[1,2,4]triazolo[4,3-c]pyrimidin-5-amine] | 0.0038 | 0.2
OCc1ncccc1-c1cnc(NCc2c(F)ccc3c2CCO3)n2cnnc12 [Example 7, (3-(5-(((5-fluoro-2,3-dihydrobenzofuran-4-yl)methyl)amino)-[1,2,4]triazolo[4,3-c]pyrimidin-8-yl)pyridin-2-yl)methanol] | 0.0052 | 3
Cc1nc(C2CC2)ncc1-c1cnc(NCc2c(F)ccc3c2CCO3)n2cnnc12 [Example 8, 8-(2-cyclopropyl-4-methylpyrimidin-5-yl)-N-((5-fluoro-2,3-dihydrobenzofuran-4-yl)methyl)-[1,2,4]triazolo[4,3-c]pyrimidin-5-amine] | 0.0029 | 0.6
Cc1nc(OC(C)C)ncc1-c1cnc(NCc2c(F)ccc3c2CCO3)n2cnnc12 [Example 9, N-((5-fluoro-2,3-dihydrobenzofuran-4-yl)methyl)-8-(2-isopropoxy-4-methylpyrimidin-5-yl)-[1,2,4]triazolo[4,3-c]pyrimidin-5-amine] | 0.0035 | 0.6
[O-][n+]1cccc(-c2cnc(NCc3c(F)ccc4c3CCO4)n3cnnc23)c1 [Example 10, 3-(5-(((5-fluoro-2,3-dihydrobenzofuran-4-yl)methyl)amino)-[1,2,4]triazolo[4,3-c]pyrimidin-8-yl)pyridine 1-oxide] | 0.001 | 17.4
Cc1ncccc1-c1cnc(NCc2c(F)ccc3occc23)n2cnnc12 [Example 207, N-((5-fluorobenzofuran-4-yl)methyl)-8-(2-methylpyridin-3-yl)-[1,2,4]triazolo[4,3-c]pyrimidin-5-amine] | 0.0036 | 1
